In patent US20240173333A1, “Treating Alagille Syndrome (ALGS)” (priority 2022, published 2024):
Read-outs that look alike come from different tables or passages of the source.

Columns and labels:
patients with ALGS = settings: cited from earlier work
[1] = Water content and water uptake of crystal modification 1 with relative humidity; type: physicochemical
Text: Crystal modification 1 contains void volumes that are capable of containing up to about 2 moles of water associated with the crystal per mole of odevixibat, depending on the relative humidity. This form is therefore formally a channel hydrate. At about 30% relative humidity, however, crystal modification 1 contains a substantially stoichiometric amount of about 1.5 moles of water per mole of organic compound and is thus a sesquihydrate. The substantially stoichiometric amount of water is considered advantageous, as the water content of the crystals remains substantially constant even with humidity changes within the normal relative humidity range of about 30% to about 70% RH.
Whereas crystal modification 1 is a sesquihydrate containing about 3.5% (w/w) water at about 30% relative humidity (based on the total crystal weight), it has been observed that the crystal can take up an additional 1.5% (w/w) water when the humidity is increased up to 95% RH. The sorption and desorption of this additional water is fully reversible. The additional water may be adsorbed on the surface or may further fill the channels of the structure. […]

For `CCCCC1(CCCC)CS(=O)(=O)c2ccc(N(C)C)cc2[C@@H](c2ccc(OCc3ccc(C[N+]45CCN(CC4)CC5)cc3)cc2)[C@H]1O` [maralixibat], the transaminase levels (patients with ALGS; patients with ALGS) is given as “Elevations in transaminase levels have been reported”.
For `CCCCC1(CCCC)CN(c2ccccc2)c2cc(SC)c(OCC(=O)N[C@@H](C(=O)N[C@@H](CC)C(=O)O)c3ccc(O)cc3)cc2S(=O)(=O)N1` [crystal modification 1], the “water content (based on the total crystal weight)” value ([1]; about 30% relative humidity) was “about 3.5 % (w/w)” and the “additional water taken up” value ([1]; humidity increased up to 95% RH, fully reversible) was 1.5 % (w/w).
In the case of cholestyramine, the transaminase levels (patients with ALGS; human, in vivo) is listed as “Elevations in transaminase levels have been reported”.
